This is an account of results in patent publication US20100119525A1 (priority 2005, published 2010).

Series [1] addresses NPC1L1 (Homo sapiens, UniProt Q9UHC9). As to conditions: prokaryotic screening method.
The conditions of series [2]: in vivo, cited from earlier work.
In series [3] the test system is C57B16 mice. As to conditions: in vivo; cited from earlier work.

NPC1L1, sequence (Q9UHC9 22-1359): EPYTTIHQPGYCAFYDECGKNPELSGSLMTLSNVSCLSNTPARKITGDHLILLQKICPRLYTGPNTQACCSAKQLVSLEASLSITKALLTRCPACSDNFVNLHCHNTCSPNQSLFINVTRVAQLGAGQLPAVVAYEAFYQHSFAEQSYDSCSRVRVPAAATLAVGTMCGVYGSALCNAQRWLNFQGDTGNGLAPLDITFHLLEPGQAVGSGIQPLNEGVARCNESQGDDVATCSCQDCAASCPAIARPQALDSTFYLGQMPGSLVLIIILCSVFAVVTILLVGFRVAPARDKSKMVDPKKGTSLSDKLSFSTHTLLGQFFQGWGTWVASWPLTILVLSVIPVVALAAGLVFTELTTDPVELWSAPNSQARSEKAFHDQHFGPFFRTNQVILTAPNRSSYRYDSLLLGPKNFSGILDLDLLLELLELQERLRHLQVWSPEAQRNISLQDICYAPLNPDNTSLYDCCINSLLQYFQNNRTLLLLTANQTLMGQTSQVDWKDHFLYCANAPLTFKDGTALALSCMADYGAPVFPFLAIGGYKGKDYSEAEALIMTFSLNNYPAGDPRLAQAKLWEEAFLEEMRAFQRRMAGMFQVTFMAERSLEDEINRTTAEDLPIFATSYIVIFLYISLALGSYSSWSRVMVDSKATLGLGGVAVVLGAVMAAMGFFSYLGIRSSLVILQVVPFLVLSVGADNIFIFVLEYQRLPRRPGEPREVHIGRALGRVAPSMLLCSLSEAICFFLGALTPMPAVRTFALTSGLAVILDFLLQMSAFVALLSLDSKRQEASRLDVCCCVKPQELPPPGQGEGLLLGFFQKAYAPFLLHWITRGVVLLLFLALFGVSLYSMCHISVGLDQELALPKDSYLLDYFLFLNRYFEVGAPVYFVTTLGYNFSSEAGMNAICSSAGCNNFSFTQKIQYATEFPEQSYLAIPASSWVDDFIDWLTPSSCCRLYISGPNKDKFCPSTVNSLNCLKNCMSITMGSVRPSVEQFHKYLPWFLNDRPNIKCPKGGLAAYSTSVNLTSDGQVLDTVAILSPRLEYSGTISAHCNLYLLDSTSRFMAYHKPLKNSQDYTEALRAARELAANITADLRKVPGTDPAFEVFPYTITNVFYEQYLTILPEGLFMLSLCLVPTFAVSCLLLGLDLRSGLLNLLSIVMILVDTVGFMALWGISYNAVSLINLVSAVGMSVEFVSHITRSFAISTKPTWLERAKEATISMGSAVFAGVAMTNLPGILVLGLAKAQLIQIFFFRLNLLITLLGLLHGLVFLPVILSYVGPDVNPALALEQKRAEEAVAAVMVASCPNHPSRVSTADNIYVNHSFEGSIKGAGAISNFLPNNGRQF

Turning to `CCCC(=O)C1(c2ccccc2)CCNCC1.Cl`, in series [1], the NPC1L1 inhibitor identification result is listed as “inhibitor was identified”.
For `O=C1[C@H](CC[C@H](O)c2ccc(F)cc2)[C@@H](c2ccc(O)cc2)N1c1ccc(F)cc1` [Zetia®, 1-(4-fluorophenyl)-(3R)-[3-(4-fluorophenyl)-3(S)-hydroxypropyl]-4(S)-(4-hydroxyphenyl)-2-azetidinone], the “extensively metabolised to the pharmacologically active ezetimibe-glucuronide” value in series [2] (po) is listed as more than 80%. In series [2], the accumulation is approximately 2 fold and the “time at which total Zetia concentrations reach a maximum” value is 1 to 2 h.
For the compound `COc1ccc2[nH]cc(CCNC(C)=O)c2c1` [melatonin], in series [3], the “life of the C57B16 mouse” value was 871 ± 30.5 days.
Take ezetimibe-glucuronide: the estimated terminal half-life entry in series [2] (po) is recorded as “approximately 22 hours”.
